{"source": "paper PMC10587081", "about": "“Biochemical and structural basis of mercuric reductase, GbsMerA, from Gelidibacter salicanalis PAMC21136” (Scientific Reports, 2023)", "key": {"GbsMerA": {"target": "T1, GbsMerA (Gelidibacter salicanalis, UniProt A0A934NG65)", "T1 construct": "gene JEM65_00875; full length, 449 aa, pET32a(+) (BamHI/XhoI), N-terminal His6 tag and vector tag cleaved with enterokinase, E. coli BL21, SEC, homodimer with non-covalent FAD; no NmerA domain and no C-terminal Cys-Cys motif; primers encode N-terminus MKEYDV and C-terminus IPHML", "T1 sequence (A0A934NG65 1-448)": "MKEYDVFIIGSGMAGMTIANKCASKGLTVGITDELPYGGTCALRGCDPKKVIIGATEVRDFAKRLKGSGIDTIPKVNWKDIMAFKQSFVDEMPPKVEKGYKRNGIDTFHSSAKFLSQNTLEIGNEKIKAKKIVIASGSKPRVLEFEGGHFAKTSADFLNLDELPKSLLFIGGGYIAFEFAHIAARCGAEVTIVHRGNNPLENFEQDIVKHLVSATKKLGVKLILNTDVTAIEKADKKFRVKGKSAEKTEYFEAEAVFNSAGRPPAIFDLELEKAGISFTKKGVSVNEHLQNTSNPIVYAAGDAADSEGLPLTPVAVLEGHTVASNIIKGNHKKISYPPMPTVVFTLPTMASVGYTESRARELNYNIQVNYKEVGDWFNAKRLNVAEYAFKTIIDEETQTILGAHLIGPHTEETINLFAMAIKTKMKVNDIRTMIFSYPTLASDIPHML", "test": "X-ray crystal structure", "format": "binding"}, "[1]": {"target": "mercuric reductase GbsMerA from Gelidibacter salicanalis PAMC21136 (Gelidibacter salicanalis PAMC21136)", "test": "crystal structure; sitting drop vapor diffusion at 22 °C; GbsMerA 35 mg/mL with 1.6 M sodium phosphate monobasic/0.4 M potassium phosphate dibasic, 0.1 M sodium phosphate dibasic/citric acid pH 4.2; homodimer in the asymmetric unit"}}, "data": [{"compound": "NC(=O)C1=CN([C@@H]2O[C@H](COP(=O)(O)OP(=O)(O)OC[C@H]3O[C@@H](n4cnc5c(N)ncnc54)[C@H](OP(=O)(O)O)[C@@H]3O)[C@@H](O)[C@H]2O)C=CC1", "note": "[NADPH]", "values": [{"measurement": "X-ray crystal structure", "setting": "GbsMerA; complex with FAD and NADPH, bicine/Trizma pH 8.5, re-face of the FAD isoalloxazine ring", "result": "Furthermore, we determined the GbsMerA–NADPH complex structure."}]}, {"compound": "Cc1cc2nc3c(=O)[nH]c(=O)nc-3n(C[C@H](O)[C@H](O)[C@H](O)COP(=O)(O)OP(=O)(O)OC[C@H]3O[C@@H](n4cnc5c(N)ncnc54)[C@H](O)[C@@H]3O)c2cc1C", "note": "[FAD]", "values": [{"measurement": "X-ray crystal structure", "setting": "GbsMerA; 2.6 Å, non-covalently bound FAD in FAD-binding domain, crystallised at pH 4.2 (phosphate/citrate)", "result": "Non-covalently bound FAD is located in the central region of the FAD-binding domain"}]}, {"compound": "mercuric reductase GbsMerA from Gelidibacter salicanalis PAMC21136 (enzyme)", "values": [{"measurement": "stoichiometry N", "setting": "[1]", "result": 2}]}]}
